Source: ChEMBL document CHEMBL1201862, “PubChem BioAssay data set” (2004)
Counter-ions that a name gives are not always drawn. The source made the active and inactive calls.

Key:
[1] = biological target: Glucose-6-phosphate 1-dehydrogenase (Homo sapiens, UniProt P11413); assay: human G6PD enzyme inhibitors, dose response, selectivity assay for P. falciparum G6PD inhibitor project, biochemical, fluorescence (AID 504792); type: functional
Escherichia coli [2] = assay: microbe, parasite or virus in culture
CAAX prenyl protease 2 [3] = biological target: CAAX prenyl protease 2 (Homo sapiens, UniProt Q9Y256); assay: human Rce1 protease inhibitors, dose response, biochemical, yeast membranes, quenched-peptide fluorescence, cherry-pick (AID 588849)
CAAX prenyl protease 2 (Homo sapiens, UniProt Q9Y256), sequence (Q9Y256 whole entry): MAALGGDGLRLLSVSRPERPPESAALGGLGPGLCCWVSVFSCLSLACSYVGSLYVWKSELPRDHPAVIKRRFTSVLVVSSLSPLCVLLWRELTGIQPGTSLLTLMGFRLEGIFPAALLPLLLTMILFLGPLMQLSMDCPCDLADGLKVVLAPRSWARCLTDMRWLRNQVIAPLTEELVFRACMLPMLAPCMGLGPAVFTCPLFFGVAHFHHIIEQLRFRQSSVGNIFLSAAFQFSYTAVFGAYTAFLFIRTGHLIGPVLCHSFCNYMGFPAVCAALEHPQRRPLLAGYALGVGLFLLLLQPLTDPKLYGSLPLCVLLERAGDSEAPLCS

Trypsin = Trypsin (Sus scrofa, UniProt P00761); assay: porcine trypsin inhibitors, dose response, selectivity assay for Rce1 protease inhibitor project, biochemical, quenched peptide fluorescence, cherry-pick (AID 488789)
Trypsin, sequence (P00761 whole entry): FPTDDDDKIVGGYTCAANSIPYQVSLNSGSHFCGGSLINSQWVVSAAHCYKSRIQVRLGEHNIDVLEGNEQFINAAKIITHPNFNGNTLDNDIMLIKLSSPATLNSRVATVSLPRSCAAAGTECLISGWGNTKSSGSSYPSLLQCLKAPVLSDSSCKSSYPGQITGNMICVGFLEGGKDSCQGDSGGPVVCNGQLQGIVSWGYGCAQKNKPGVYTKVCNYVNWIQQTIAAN

CAAX prenyl protease 2 [4] = biological target: T1, CAAX prenyl protease 2 (Saccharomyces cerevisiae S288c, UniProt Q03530); type: biochemical
T1 sequence (Q03530 whole entry): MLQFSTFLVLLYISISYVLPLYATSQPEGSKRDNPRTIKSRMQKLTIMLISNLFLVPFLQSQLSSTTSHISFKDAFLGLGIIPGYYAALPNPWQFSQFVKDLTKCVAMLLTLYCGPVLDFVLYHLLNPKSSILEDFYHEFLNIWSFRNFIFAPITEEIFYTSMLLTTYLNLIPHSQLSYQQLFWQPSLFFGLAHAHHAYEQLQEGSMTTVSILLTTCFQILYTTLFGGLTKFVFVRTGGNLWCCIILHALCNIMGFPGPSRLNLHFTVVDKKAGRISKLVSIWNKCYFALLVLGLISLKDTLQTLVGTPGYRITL

[5] = human group III sPLA2 inhibitors, dose response, biochemical, QFRET, IC50 (AID 743457);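 further: green fluorescence rise as the enzyme cleaves BODIPY PC-A2 in liposomes; potency for inhibition of the enzyme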
Vero [6] = assay: cells; type: functional, cell-based; details: Chlorocebus sabaeus
Vero [7] = assay: cells; type: functional; details: Chlorocebus sabaeus
[8] = biological target: T2, Short transient receptor potential channel 4 (Mus musculus, UniProt Q9QUQ5); assay: mouse TRPC4 channel activators, dose response, cell-based, HEK293 TRPC4/mu-opioid, Fluo-4 calcium (AID 434937); type: functional
T2 sequence (Q9QUQ5 whole entry): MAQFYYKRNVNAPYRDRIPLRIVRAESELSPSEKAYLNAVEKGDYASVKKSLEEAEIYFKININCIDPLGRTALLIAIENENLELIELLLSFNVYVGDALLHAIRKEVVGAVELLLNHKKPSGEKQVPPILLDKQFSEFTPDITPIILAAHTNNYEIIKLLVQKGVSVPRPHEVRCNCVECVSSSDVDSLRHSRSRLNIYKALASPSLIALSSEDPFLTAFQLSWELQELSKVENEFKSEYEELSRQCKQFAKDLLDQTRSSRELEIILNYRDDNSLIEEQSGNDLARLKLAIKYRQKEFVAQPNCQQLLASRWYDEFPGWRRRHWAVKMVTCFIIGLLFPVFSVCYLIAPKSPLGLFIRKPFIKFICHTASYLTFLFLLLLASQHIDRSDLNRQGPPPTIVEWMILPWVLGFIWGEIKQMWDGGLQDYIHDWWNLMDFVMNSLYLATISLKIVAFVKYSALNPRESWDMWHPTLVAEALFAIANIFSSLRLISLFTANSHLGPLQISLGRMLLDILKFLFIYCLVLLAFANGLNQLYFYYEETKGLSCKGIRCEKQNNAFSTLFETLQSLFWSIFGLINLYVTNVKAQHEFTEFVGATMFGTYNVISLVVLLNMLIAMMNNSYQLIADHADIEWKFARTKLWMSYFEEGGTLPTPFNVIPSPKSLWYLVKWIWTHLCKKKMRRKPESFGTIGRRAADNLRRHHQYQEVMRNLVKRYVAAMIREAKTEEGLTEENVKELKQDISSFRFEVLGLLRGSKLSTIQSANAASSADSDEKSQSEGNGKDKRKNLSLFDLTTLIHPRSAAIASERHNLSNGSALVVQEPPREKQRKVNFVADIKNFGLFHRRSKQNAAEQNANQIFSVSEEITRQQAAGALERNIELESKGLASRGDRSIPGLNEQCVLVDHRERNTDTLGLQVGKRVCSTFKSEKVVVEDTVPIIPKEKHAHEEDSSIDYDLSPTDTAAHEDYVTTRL

Escherichia coli [9] = assay: microbe, parasite or virus in culture; remark: listed apart in the source
[10] = cytotoxicity in HMLE control line with eGFP shRNA, dose response, counter-screen for HMLE_sh_ECad selective toxicity project, cell-based, HMLE_sh_eGFP, luminescence (AID 463074); type: functional, Homo sapiens;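 further: HMLE human mammary epithelial cells expressing control shRNA against eGFP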
[11] = Luminescence Cell-Based Dose Retest to Confirm Inhibitors of Cancer Stem Cells. [Related pubchem assays (depositor defined):AID2717, AID2721]; type: functional; details: Homo sapiens
HEK293 = assay: cells; type: functional, cell-based; details: Homo sapiens
[12] = biological target: T3, Nuclear receptor subfamily 0 group B member 1 (Homo sapiens, UniProt P51843); assay: Luminescence-based cell-based high throughput dose response assay for inhibitors of the orphan nuclear receptor subfamily 0, group B, member 1 (DAX1; NR0B1). [Related pubchem assays (depositor defined):AID504766, AID504790]; type: functional
T3 sequence (P51843 whole entry): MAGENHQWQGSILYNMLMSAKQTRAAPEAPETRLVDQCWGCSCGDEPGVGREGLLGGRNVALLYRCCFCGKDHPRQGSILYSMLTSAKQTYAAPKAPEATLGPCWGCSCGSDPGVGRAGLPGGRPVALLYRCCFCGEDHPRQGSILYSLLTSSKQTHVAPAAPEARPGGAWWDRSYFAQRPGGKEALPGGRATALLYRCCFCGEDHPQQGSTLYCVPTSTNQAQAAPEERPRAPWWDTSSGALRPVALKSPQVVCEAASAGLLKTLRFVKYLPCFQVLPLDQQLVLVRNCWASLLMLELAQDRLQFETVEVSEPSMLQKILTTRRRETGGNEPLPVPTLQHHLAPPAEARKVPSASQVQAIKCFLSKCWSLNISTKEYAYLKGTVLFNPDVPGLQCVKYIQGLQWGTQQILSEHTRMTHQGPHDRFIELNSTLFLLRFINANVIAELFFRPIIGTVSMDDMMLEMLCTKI

[13] = biological target: T4, Tyrosine-protein phosphatase non-receptor type 7 (Homo sapiens, UniProt P35236); type: functional
T4 sequence (P35236 whole entry): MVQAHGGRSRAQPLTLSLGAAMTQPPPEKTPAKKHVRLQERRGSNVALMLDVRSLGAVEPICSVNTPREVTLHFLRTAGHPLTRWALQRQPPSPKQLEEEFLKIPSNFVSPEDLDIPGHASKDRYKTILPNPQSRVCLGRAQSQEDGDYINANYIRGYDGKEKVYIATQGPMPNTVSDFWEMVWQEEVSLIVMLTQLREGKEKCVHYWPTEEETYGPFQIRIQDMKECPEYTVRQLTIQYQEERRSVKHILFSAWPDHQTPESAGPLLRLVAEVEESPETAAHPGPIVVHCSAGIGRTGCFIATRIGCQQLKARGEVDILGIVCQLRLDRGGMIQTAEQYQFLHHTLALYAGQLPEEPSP

[14] = biological target: T5, E3 ubiquitin-protein ligase XIAP (Homo sapiens, UniProt P98170); assay: Counter Screen using XIAP-Bir3 for Chemical Antagonists of Bir1/2 domains of IAP-family anti-apoptotic proteins. [Related pubchem assays (depositor defined):AID1018, AID1449, AID1514, AID1638, AID1749, AID1750, AID488957, AID488963]
T5 sequence (P98170 whole entry): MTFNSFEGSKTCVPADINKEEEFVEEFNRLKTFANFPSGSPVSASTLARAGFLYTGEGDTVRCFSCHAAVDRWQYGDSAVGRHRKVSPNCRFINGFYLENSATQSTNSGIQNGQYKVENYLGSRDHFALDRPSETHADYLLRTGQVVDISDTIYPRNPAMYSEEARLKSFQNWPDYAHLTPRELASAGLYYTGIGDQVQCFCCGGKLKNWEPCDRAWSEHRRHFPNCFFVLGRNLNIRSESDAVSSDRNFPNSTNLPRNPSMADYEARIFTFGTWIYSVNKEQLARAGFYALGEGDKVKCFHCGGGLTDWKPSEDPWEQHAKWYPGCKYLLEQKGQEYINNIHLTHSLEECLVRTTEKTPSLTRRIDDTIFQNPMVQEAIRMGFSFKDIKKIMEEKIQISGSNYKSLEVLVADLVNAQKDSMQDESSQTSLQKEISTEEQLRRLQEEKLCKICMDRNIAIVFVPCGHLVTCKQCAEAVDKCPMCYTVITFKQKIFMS

[15] = biological target: T6, Dual specificity protein phosphatase 6 (Rattus norvegicus, UniProt Q64346)
T6 sequence (Q64346 whole entry): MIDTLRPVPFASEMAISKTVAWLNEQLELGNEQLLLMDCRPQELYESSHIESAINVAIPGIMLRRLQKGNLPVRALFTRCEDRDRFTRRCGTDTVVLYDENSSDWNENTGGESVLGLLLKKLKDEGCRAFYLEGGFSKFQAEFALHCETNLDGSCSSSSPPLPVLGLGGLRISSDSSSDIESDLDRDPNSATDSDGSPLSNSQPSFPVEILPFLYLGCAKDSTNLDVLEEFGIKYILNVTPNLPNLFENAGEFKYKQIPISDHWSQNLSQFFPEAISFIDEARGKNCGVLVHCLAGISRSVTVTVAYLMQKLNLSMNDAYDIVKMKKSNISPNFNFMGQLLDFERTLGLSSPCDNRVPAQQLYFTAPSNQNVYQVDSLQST

[16] = biological target: T6, Dual specificity protein phosphatase 6; type: functional
[17] = biological target: T5, E3 ubiquitin-protein ligase XIAP; assay: XIAP antagonists, biochemical, IAP family, fluorescence polarization (AID 1018); type: functional
[18] = biological target: Glyceraldehyde-3-phosphate dehydrogenase (Homo sapiens, UniProt P04406)
[19] = enhancers of respiration in Yfh1-depleted yeast, dose response, Friedreich's ataxia, plus single-dose screen (AID 1465); type: functional;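 further: yeast depleted of Yfh1p frataxin homolog grown on glycerol needing respiration; WST-1 tetrazolium dye reduction as measure of cellular dehydrogenase metabolic activity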
[20] = test system: Streptococcus sp. 'group A'; assay: growth inhibition of control SK(-) GAS strain, dose response, counter-screen for streptokinase expression inhibitor project, luminescence, kanamycin, BacTiterGlo, confirmation (AID 1900); type: functional, organism-based
Streptococcus = assay: Group A Streptococcus viability loss, dose response, counter-screen for streptokinase expression inhibitor project, luminescence, BacTiterGlo (AID 1915); type: functional, organism-based;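 further: potency for reduction of bacterial viability or growth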
[21] = biological target: 1-phosphatidylinositol 4,5-bisphosphate phosphodiesterase beta-3 (Homo sapiens, UniProt Q01970); assay: Fluorescence-based biochemical high throughput dose response assay to identify inhibitors of phospholipase C isozymes (PLC-B3).
1-phosphatidylinositol 4,5-bisphosphate phosphodiesterase beta-3, sequence (Q01970 whole entry): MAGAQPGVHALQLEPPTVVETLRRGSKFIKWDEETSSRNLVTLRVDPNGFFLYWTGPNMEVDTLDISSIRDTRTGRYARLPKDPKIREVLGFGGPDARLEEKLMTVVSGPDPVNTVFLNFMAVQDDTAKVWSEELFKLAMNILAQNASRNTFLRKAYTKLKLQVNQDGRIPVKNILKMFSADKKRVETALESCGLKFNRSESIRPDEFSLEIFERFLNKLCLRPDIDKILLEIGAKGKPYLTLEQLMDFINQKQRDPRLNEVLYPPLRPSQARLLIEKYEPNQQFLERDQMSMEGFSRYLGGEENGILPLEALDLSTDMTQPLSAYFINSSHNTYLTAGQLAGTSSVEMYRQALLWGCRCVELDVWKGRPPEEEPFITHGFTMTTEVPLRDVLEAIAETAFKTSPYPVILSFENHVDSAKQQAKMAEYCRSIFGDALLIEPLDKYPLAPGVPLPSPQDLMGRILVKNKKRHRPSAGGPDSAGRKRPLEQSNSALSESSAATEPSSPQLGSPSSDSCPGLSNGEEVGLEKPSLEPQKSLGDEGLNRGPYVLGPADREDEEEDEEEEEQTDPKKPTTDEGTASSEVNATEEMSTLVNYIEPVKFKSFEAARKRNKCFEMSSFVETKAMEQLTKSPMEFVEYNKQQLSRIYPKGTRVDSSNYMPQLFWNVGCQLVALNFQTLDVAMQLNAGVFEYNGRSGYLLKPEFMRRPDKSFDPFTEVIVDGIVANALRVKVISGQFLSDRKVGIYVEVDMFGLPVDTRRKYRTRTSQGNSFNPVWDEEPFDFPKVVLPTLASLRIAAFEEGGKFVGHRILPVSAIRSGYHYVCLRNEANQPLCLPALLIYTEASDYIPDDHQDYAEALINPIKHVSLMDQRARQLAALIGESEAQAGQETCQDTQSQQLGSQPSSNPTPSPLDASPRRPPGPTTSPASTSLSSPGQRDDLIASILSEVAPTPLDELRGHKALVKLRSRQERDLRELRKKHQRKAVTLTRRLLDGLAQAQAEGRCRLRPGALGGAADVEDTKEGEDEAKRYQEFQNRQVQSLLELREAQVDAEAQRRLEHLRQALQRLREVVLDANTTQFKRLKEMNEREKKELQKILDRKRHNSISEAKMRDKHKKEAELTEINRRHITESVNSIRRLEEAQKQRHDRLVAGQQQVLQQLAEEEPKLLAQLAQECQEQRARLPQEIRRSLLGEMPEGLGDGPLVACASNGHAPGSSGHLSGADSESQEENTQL

[22] = biological target: T7, Rac GTPase-activating protein 1 (Homo sapiens, UniProt Q9H0H5); assay: MgcRacGAP GTPase-activating activity inhibitors, confirmation, biochemical, ADP Hunter fluorescence, primary and confirmatory (AID 624330); type: functional
T7 sequence (Q9H0H5 whole entry): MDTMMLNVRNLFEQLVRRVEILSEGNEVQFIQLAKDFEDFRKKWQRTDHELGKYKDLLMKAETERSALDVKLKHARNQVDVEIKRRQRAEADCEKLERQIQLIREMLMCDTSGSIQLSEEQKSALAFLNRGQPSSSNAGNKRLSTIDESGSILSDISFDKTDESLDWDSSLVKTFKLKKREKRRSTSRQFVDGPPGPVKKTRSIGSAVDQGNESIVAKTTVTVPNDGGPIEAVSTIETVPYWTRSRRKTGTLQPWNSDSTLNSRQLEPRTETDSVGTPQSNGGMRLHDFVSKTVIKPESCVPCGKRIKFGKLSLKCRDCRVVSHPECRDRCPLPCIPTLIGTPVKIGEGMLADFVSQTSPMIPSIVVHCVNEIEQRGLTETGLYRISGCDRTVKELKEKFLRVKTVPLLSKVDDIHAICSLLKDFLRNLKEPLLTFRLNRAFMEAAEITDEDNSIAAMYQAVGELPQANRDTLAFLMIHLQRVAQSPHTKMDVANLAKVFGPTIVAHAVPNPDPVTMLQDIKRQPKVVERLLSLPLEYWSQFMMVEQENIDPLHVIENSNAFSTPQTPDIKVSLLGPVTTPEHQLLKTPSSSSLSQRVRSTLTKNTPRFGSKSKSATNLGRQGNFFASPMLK

NS3 = NS3 (Hepatitis C virus, UniProt A3EZJ3); assay: PubChem AID 2173; set-up: species or system Hepacivirus hominis
NS3, sequence (A3EZJ3 whole entry): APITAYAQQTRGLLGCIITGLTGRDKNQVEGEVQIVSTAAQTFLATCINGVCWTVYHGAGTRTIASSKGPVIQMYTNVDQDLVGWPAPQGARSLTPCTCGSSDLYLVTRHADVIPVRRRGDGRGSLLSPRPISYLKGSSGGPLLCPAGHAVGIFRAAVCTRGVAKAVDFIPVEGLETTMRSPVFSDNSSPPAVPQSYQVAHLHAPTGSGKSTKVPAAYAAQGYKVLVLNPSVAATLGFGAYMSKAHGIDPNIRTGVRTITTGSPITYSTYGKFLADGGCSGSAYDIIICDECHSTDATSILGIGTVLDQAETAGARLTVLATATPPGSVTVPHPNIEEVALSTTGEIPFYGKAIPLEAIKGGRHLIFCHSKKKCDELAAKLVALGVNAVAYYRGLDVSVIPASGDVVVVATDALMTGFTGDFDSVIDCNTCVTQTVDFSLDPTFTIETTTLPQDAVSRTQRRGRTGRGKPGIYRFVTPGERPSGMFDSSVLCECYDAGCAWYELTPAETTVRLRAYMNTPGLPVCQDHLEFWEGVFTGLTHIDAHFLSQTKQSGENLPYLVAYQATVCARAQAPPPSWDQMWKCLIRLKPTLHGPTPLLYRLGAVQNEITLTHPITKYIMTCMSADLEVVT

[23] = biological target: 1-phosphatidylinositol 4,5-bisphosphate phosphodiesterase gamma-1 (Homo sapiens, UniProt P19174); assay: Counterscreen for inhibitors of phospholipase C isozymes (PLC-B3): Fluorescence-based biochemical high throughput dose response assay to identify inhibitors of phospholipase C isozymes (PLC-gamma1).
1-phosphatidylinositol 4,5-bisphosphate phosphodiesterase gamma-1, sequence (P19174 whole entry): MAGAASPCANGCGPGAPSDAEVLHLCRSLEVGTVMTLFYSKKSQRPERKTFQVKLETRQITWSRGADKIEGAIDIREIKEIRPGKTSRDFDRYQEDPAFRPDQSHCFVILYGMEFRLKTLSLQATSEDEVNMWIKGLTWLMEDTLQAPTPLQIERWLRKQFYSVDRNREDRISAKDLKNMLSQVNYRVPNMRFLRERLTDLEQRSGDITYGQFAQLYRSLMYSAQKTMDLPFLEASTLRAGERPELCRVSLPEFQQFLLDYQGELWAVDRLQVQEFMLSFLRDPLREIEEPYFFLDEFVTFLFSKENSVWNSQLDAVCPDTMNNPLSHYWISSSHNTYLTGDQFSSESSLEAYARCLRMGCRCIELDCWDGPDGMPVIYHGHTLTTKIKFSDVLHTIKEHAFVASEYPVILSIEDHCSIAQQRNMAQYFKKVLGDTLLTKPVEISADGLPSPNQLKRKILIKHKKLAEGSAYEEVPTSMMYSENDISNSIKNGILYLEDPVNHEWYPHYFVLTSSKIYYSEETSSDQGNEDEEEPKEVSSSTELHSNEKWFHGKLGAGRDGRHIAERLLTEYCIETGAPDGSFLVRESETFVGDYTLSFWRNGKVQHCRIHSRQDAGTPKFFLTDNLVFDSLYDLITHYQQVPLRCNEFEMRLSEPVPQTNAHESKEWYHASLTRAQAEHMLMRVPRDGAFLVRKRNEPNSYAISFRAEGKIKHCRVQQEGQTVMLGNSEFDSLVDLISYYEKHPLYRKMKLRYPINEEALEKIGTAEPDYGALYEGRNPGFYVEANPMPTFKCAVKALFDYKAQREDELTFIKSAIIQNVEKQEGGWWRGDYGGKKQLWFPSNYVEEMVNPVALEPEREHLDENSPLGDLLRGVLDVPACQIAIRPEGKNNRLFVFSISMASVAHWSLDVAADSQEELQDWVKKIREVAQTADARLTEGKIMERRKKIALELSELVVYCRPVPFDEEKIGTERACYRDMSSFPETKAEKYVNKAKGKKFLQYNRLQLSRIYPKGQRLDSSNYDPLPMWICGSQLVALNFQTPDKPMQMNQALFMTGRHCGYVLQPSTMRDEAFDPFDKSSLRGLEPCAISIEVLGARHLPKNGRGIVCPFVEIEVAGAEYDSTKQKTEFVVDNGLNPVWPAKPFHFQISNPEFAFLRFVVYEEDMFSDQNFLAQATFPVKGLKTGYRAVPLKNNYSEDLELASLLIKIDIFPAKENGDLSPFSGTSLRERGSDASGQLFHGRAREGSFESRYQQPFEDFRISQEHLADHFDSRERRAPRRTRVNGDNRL

Glucose-6-phosphate 1-dehydrogenase, sequence (P11413 whole entry): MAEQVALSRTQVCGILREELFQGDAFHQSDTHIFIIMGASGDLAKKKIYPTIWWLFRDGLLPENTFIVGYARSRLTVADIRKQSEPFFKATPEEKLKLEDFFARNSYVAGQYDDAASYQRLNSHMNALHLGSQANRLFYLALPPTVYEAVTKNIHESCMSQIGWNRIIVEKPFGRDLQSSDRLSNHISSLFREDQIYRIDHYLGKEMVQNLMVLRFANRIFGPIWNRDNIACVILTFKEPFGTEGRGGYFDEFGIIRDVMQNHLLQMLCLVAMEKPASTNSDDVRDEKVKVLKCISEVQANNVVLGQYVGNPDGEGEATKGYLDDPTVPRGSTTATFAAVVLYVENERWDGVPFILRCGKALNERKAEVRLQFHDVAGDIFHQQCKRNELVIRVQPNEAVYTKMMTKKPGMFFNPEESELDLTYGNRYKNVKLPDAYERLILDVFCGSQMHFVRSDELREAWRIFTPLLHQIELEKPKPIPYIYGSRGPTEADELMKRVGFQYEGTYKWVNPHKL

C=CCOc1c(Cl)cc(CNc2ccc3[nH]c(O)nc3c2)cc1OC
IC50 [1]: > 80 µM (inactive)

Cc1ccc(-c2[nH]nc3c2C(c2ccccc2)N(c2ccc(C(=O)O)cc2)C3=O)cc1 (configuration not stated)
AC50 (Escherichia coli [2]): 35.3 µM (active)

CCOc1ccc(S(=O)(=O)Nc2cc(OC)c(OC)cc2C(=O)O)cc1
AC50 (CAAX prenyl protease 2 [3]): 4.23 µM (active) | AC50 (Trypsin): 7.53 µM (active) | AC50 (CAAX prenyl protease 2 [4]): 9.8 µM (active)

COc1ccc(C(=O)NC(=S)NNC(=O)c2cccc(C)c2)cc1
IC50 [5]: 75.7 µM (inactive) | IC50 (Vero [6]): 23.7 µM (active) | CC50 (Vero [7]): > 25 µM (active) | EC50 [8]: 3.35 µM (active)

C/C=C(/C)C(=O)Nc1cccc(C2=NOC3(C2)C[C@H](C(N)=O)N(C(=O)c2ccc(Cl)cc2)C3)c1 (some centres not stated)
AC50 (Escherichia coli [9]): 48 µM (active)

Cc1ccc(P(=S)(c2ccc(C)o2)N2CCOCC2)o1
AC50 [10]: 78.2 µM (active) | AC50 [11]: > 195 µM (inactive)

Cn1c(C(=O)N2CCCC(C(=O)NCCCSC3CCCCC3)C2)cc2sccc21 (configuration not stated)
AC50 [10]: 21.6 µM (active) | AC50 [11]: 5.7 µM (active)

Cc1ccc2nc(-c3ccc(NC(=S)NCC(C)(C)CN(C)C)cc3)sc2c1
IC50 (HEK293): > 67.5 µM (inactive) | IC50 (Vero [6]): 15.4 µM (active) | IC50 [12]: > 67.5 µM (inactive)

O=C(O)[C@@H](O)c1ccccc1
IC50 [13]: > 100 µM (not active) | IC50 [14]: > 100 µM (inactive) | IC50 [15]: > 100 µM (inactive) | IC50 [16]: > 100 µM (inactive) | IC50 [17]: > 100 µM (not active) | IC50 [18]: > 100 µM (not active)

C=C1c2cccc(O)c2C(=O)C2=C(O)[C@]3(O)C(=O)C(C(N)=O)=C(O)[C@@H](N(C)C)[C@@H]3[C@@H](O)[C@H]12 [METHACYCLINE HYDROCHLORIDE]
EC50 [19]: > 100 µM (active) | EC50 [20]: 0.099 µM (active) | EC50 (Streptococcus): 0.109 µM (active) | IC50 [21]: > 122 µM (inactive) | AC50 (Escherichia coli [2]): 29.5 µM (active) | IC50 [22]: 66.8 µM (active) | IC50 (NS3): > 109 µM (not active) | AC50 (Escherichia coli [9]): 0.707 µM (active) | IC50 [23]: > 122 µM (inactive)
